Measured values from the NIST ThermoML archive (doi:10.1021/acs.jced.5b00075).
± gives the expanded uncertainty stated by the source.

Legend:
[1] = Crystal; DTA
[2] = Molar enthalpy of transition or fusion; conditions: Crystal; DSC
[3] = molar heat capacity at constant pressure; conditions: 101.33 kPa, Small sample (50 mg) DSC

In the case of C(=C\c1ccccc1)/CN1CCN(C(c2ccccc2)c2ccccc2)CC1 [cinnarizine], the Normal melting temperature [1] is reported as 120.83 ± 0.5 °C, the “Molar enthalpy of transition or fusion” value [2] is reported as 8.87 ± 1.03 kcal/mol and the “molar heat capacity at constant pressure” value ([3]; 305 K, Crystal) is reported as 307.19 ± 37 J/K/mol. The “molar heat capacity at constant pressure” value ([3]; 310 K, Crystal) was 314.6 ± 37 J/K/mol, the “molar heat capacity at constant pressure” value ([3]; 315 K, Crystal) was 322.02 ± 37 J/K/mol and the “molar heat capacity at constant pressure” value ([3]; 320 K, Crystal) was 329.43 ± 37 J/K/mol. The “molar heat capacity at constant pressure” value ([3]; 325 K, Crystal) was 336.84 ± 38 J/K/mol, the “molar heat capacity at constant pressure” value ([3]; 330 K, Crystal) was 344.26 ± 38 J/K/mol and the “molar heat capacity at constant pressure” value ([3]; 335 K, Crystal) was 351.67 ± 38 J/K/mol. For the same compound, the “molar heat capacity at constant pressure” value ([3]; 340 K, Crystal) was 359.09 ± 38 J/K/mol, the “molar heat capacity at constant pressure” value ([3]; 345 K, Crystal) was 366.5 ± 38 J/K/mol and the “molar heat capacity at constant pressure” value ([3]; 350 K, Crystal) was 373.91 ± 38 J/K/mol. The “molar heat capacity at constant pressure” value ([3]; 355 K, Crystal) was 381.33 ± 38 J/K/mol, the “molar heat capacity at constant pressure” value ([3]; 360 K, Crystal) was 388.74 ± 38 J/K/mol and the “molar heat capacity at constant pressure” value ([3]; 365 K, Crystal) was 396.15 ± 38 J/K/mol. The “molar heat capacity at constant pressure” value ([3]; 370 K, Crystal) was 403.57 ± 38 J/K/mol, the “molar heat capacity at constant pressure” value ([3]; 375 K, Crystal) was 410.98 ± 38 J/K/mol and the “molar heat capacity at constant pressure” value ([3]; 380 K, Crystal) was 418.4 ± 38 J/K/mol. For the same compound, the “molar heat capacity at constant pressure” value ([3]; 385 K, Crystal) was 425.81 ± 38 J/K/mol, the “molar heat capacity at constant pressure” value ([3]; 400 K, Liquid) was 558.85 ± 35 J/K/mol and the “molar heat capacity at constant pressure” value ([3]; 405 K, Liquid) was 563.97 ± 36 J/K/mol. The “molar heat capacity at constant pressure” value ([3]; 410 K, Liquid) was 569.09 ± 36 J/K/mol and the “molar heat capacity at constant pressure” value ([3]; 415 K, Liquid) was 574.21 ± 36 J/K/mol.
